Experimental data from PubChem BioAssay (NCI).
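Growth conditions: 96-well plates. Treatment: test compound, 48 hours, 5 concentrations. Analysis: linear interpolation between bracketing concentrations; unreached endpoints set to highest concentration. GI50 marks 50% less growth. Definition used: TGI = concentration required for complete inhibition of growth.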

Columns and labels:
Assay in all cases: NCI anticancer screen, dose series, 48 h
[1] = system: 786-0 renal
[2] = system: A498 renal
[3] = system: A549 NSCLC
[4] = system: ACHN renal
[5] = system: BT-549 breast
[6] = system: CAKI-1 renal
[7] = system: CCRF-CEM leukemia
[8] = system: COLO 205 colon
[9] = system: DU-145 prostate
[10] = system: EKVX NSCLC
[11] = system: HCC-2998 colon
[12] = system: HCT-116 colon
[13] = system: HCT-15 colon
[14] = system: HL-60(TB) leukemia
[15] = system: HOP-62 NSCLC
[16] = system: HOP-92 NSCLC
[17] = system: HS 578T breast
[18] = system: HT29 colon
[19] = system: IGROV1 ovarian
[20] = system: K-562 leukemia
[21] = system: KM12 colon
[22] = system: LOX IMVI melanoma
[23] = system: M14 melanoma
[24] = system: MALME-3M melanoma
[25] = system: MCF7 breast
[26] = system: MDA-MB-231 breast
[27] = system: MDA-MB-435
[28] = system: MOLT-4 leukemia
[29] = system: NCI-H226 lung
[30] = system: NCI-H23 lung
[31] = system: NCI-H460 lung
[32] = system: NCI-H522 lung
[33] = system: NCI/ADR-RES ovarian
[34] = system: OVCAR-3 ovarian
[35] = system: OVCAR-4 ovarian
[36] = system: OVCAR-5 ovarian
[37] = system: OVCAR-8 ovarian
[38] = system: PC-3 prostate
[39] = system: RPMI-8226 leukemia
[40] = system: RXF 393 renal
[41] = system: SF-268 CNS
[42] = system: SF-539 CNS
[43] = system: SK-MEL-2 melanoma
[44] = system: SK-MEL-28 melanoma
[45] = system: SK-MEL-5 melanoma
[46] = system: SK-OV-3 ovarian
[47] = system: SN12C renal
[48] = system: SNB-19 CNS
[49] = system: SNB-75 CNS
[50] = system: SR leukemia
[51] = system: SW-620 colon
[52] = system: T-47D breast
[53] = system: TK-10 renal
[54] = system: U251 CNS
[55] = system: UACC-257 melanoma
[56] = system: UACC-62 melanoma
[57] = system: UO-31 renal

**Q.** Which results are given for `C[C@]12CCC(=O)CC1CC[C@@H]1C2CC[C@@]2(C)C1CC[C@@H]2OC(=O)CC[Se][Se]CCC(=O)O[C@H]1CCC2[C@@H]3CCC4CC(=O)CC[C@]4(C)C3CC[C@@]21C` (stereo partly drawn)?
**A.** GI50 [1]: 3.25 µM; TGI [1]: 9.36 µM; GI50 [2]: 1.76 µM; TGI [2]: 4.15 µM; GI50 [3]: 1.94 µM; TGI [3]: 4.39 µM; GI50 [4]: 3.61 µM; TGI [4]: 13.2 µM; GI50 [5]: 2.1 µM; TGI [5]: 4.52 µM; GI50 [6]: 1.64 µM; TGI [6]: 5.09 µM; GI50 [7]: 3.54 µM; TGI [7]: > 100 µM; GI50 [8]: 2.17 µM; TGI [8]: 4.01 µM; GI50 [9]: 2.19 µM; TGI [9]: 5.05 µM; GI50 [10]: 2.44 µM; GI50 [11]: 13.4 µM; TGI [11]: 31.6 µM; GI50 [12]: 2.01 µM; TGI [12]: 4.16 µM; GI50 [13]: 3.64 µM; TGI [13]: 16 µM; GI50 [14]: 4.15 µM; TGI [14]: > 100 µM; GI50 [15]: 2.52 µM; TGI [15]: 5.34 µM; GI50 [16]: 2.22 µM; TGI [16]: 6.04 µM; GI50 [17]: 2.02 µM; TGI [17]: 7.79 µM; GI50 [18]: 2.5 µM; TGI [18]: 6.01 µM; GI50 [19]: 2.13 µM; TGI [19]: 4.3 µM; GI50 [20]: 10 µM; TGI [20]: > 100 µM; GI50 [21]: 4.09 µM; TGI [21]: 14.5 µM; GI50 [22]: 2.12 µM; TGI [22]: 5.07 µM; GI50 [23]: 2.28 µM; TGI [23]: 5.69 µM; GI50 [24]: 1.83 µM; TGI [24]: 3.63 µM; GI50 [25]: 3.85 µM; TGI [25]: 12 µM; GI50 [26]: 1.57 µM; TGI [26]: 3.36 µM; GI50 [27]: 1.82 µM; TGI [27]: 3.83 µM; GI50 [28]: 4.67 µM; TGI [28]: > 100 µM; GI50 [29]: 2.25 µM; TGI [29]: 5.79 µM; GI50 [30]: 3.63 µM; TGI [30]: 18.4 µM; GI50 [31]: 2.84 µM; TGI [31]: 9.81 µM; GI50 [32]: 3.17 µM; TGI [32]: 10.9 µM; GI50 [33]: 3.03 µM; TGI [33]: 11.4 µM; GI50 [34]: 2.73 µM; TGI [34]: 6.84 µM; GI50 [35]: 3.51 µM; TGI [35]: 15.6 µM; GI50 [36]: 6.5 µM; TGI [36]: 25.1 µM; GI50 [37]: 3.06 µM; TGI [37]: 9.84 µM; GI50 [38]: 2.55 µM; TGI [38]: 8.27 µM; GI50 [39]: 5.03 µM; TGI [39]: > 100 µM; GI50 [40]: 2.08 µM; TGI [40]: 7.95 µM; GI50 [41]: 1.86 µM; TGI [41]: 3.79 µM; GI50 [42]: 3.22 µM; TGI [42]: 10.5 µM; GI50 [43]: 2.67 µM; TGI [43]: 5.7 µM; GI50 [44]: 2.01 µM; TGI [44]: 5.05 µM; GI50 [45]: 1.77 µM; TGI [45]: 3.35 µM; GI50 [46]: 7.15 µM; TGI [46]: 17.4 µM; GI50 [47]: 1.82 µM; TGI [47]: 3.75 µM; GI50 [48]: 2.25 µM; TGI [48]: 6.43 µM; GI50 [49]: 1.48 µM; TGI [49]: 3.02 µM; GI50 [50]: 4.28 µM; TGI [50]: > 100 µM; GI50 [51]: 4.81 µM; TGI [51]: 20 µM; GI50 [52]: 9.1 µM; TGI [52]: 27.1 µM; GI50 [53]: 2.1 µM; TGI [53]: 4.79 µM; GI50 [54]: 1.91 µM; TGI [54]: 3.85 µM; GI50 [55]: 2.86 µM; TGI [55]: 13 µM; GI50 [56]: 2.2 µM; TGI [56]: 8.05 µM; GI50 [57]: 2.61 µM; TGI [57]: 10.7 µM
